In US20130230459A1, “RADIOLABELLED mGluR2 PET LIGANDS” (Janssen Pharmaceuticals, Inc., priority 2010, published 2013):

Legend:
human mGluR2 receptor = biological target: T1, human mGluR2 receptor (Homo sapiens, UniProt Q14416); test: [35S]GTPγS binding assay, mGluR2 positive allosteric modulation (PAM); format: biochemical; details: in presence of ~EC20 glutamate, membranes of CHO cells with human mGluR2; for EC50: read-out: GTPγS-hmGluR2 PAM pEC50 (converted)
T1 construct: expressed in transfected cells; host or cells: CHO cells (membranes)
Description: The [^35S]GTPγS binding assay is a functional membrane-based assay used to study G-protein coupled receptor (GPCR) function whereby incorporation of a non-hydrolysable form of GTP, [^35S]GTPγS (guanosine 5′-triphosphate, labelled with […] ^35S), is measured.
CHO-cells were cultured to pre-confluence and stimulated with 5 mM butyrate for 24 h. Cells were then collected by scraping in PBS and cell suspension was centrifuged (10 min at 4000 RPM in benchtop centrifuge). Supernatant was discarded and pellet gently resuspended in 50 mM Tris-HCl, pH 7.4 by mixing with a vortex and pipetting up and down. The suspension was centrifuged at 16,000 RPM (Sorvall RC-5C plus rotor SS-34) for 10 minutes and the supernatant discarded. The pellet was homogenized in 5 mM Tris-HCl, pH 7.4 using an ultra-turrax homogenizer and centrifuged again (18,000 RPM, 20 min, 4° C.). The final pellet was resuspended in 50 mM Tris-HCl, pH 7.4 and stored at −80° C. in appropriate aliquots before use. Protein concentration was determined by the Bradford method (Bio-Rad, USA) with bovine serum albumin as standard.
Measurement of mGluR2 positive allosteric modulatory activity of test compounds was performed as follows. Test compounds and glutamate were diluted in assay buffer containing 10 mM HEPES acid, 10 mM HEPES salt, pH 7.4, 100 mM NaCl, 3 mM MgCl2 and 10 μM GDP. Human mGlu2 receptor-containing membranes were thawed on ice and diluted in assay buffer supplemented with 14 μg/ml saponin. Membranes were pre-incubated with compound alone or together with a predefined (˜EC20) concentration of glutamate (PAM assay) for 30 min at 30° C. After addition of [^35S]GTPγS (f.c. 0.1 nM), assay mixtures were shaken briefly and further incubated to allow [^35S]GTPγS incorporation on activation (30 minutes, 30° C.). Final assay mixtures contained 7 μg of membrane protein in 10 mM HEPES acid, 10 mM HEPES salt, pH 7.4, 100 mM NaCl, 3 mM MgCl2,10 μM GDP and 10 μg/ml saponin. Total reaction volume was 200 μl. Reactions were terminated by rapid filtration through Unifilter-96 GF/B plates (Perkin Elmer, Mass., USA) using a 96-well filtermate universal harvester. Filters were washed 6 times with ice-cold 10 mM NaH2PO4/10 mM Na2HPO4, pH 7.4. Filters were then air-dried, and 40 μl of liquid scintillation cocktail (Microscint-O) was added to each well. Membrane-bound radioactivity was counted in a Microplate Scintillation and Luminescence Counter from Perkin Elmer.
The concentration-response curves of representative compounds of the present invention—obtained in the presence of EC20 of mGluR2 agonist glutamate to determine positive allosteric modulation (PAM)—were generated using the Lexis software interface (developed at J&J). Data were calculated as % of the control glutamate response, defined as the maximal response that is generated upon addition of glutamate alone. Sigmoid concentration-response curves plotting these percentages versus the log concentration of the test compound were analyzed using non-linear regression analysis. The concentration producing half-maximal effect is then calculated as EC50.
The pEC50 values below were calculated as the −log EC50, when the EC50 is expressed in M.

[1] = test system: hmGluR1, hmGluR3, hmGluR4, hmGluR5, rmGluR6, hmGluR7 and hmGluR8; test: Selectivity for hmGluR2 in functional receptor assays (Ca2+ mobilization or [35S]GTPγS); format: cell-based, human; rat (mGluR6); details: hmGluR2 versus other mGluRs
Description: (§1) Selectivity of the compounds for hmGluR2 versus hmGluR1, hmGluR3, hmGluR4, hmGluR5, rmGluR6, hmGluR7 and hmGluR8 was determined using functional receptor assays (either measuring changes in intracellular Ca2+ mobilization or G protein activation via [^35S]GTPγS) with cells overexpressing the receptor of interest.

hmGluR3 = biological target: T2, hmGluR3 (Homo sapiens, UniProt Q14832); test: Selectivity functional receptor assay, mGluR3; format: cell-based; details: hmGluR2 versus mGluR3
T2 construct: expressed in transfected cells
Description: as §1

hmGluR7 = biological target: T3, hmGluR7 (Homo sapiens, UniProt Q14831); test: Selectivity functional receptor assay, mGluR7; format: cell-based; details: hmGluR2 versus mGluR7
T3 construct: expressed in transfected cells
Description: as §1

hmGluR8 = biological target: T4, hmGluR8 (Homo sapiens, UniProt O00222); test: Selectivity functional receptor assay, mGluR8; format: cell-based; details: hmGluR2 versus mGluR8
T4 construct: expressed in transfected cells
Description: as §1

mGluR2 = biological target: T5, mGluR2 (Rattus norvegicus, UniProt P31421); test: MicroPET imaging: baseline, blocking and chase experiments; format: in vivo, Wistar rats; details: chase 0.3 mg/kg i.v. ~30 min after [^11C]B-2
T5 construct: from tissue; host or cells: brain of living male Wistar rats (in vivo microPET)
Description: Imaging experiments were performed on a Focus™ 220 microPET scanner (Concorde Microsystems, Knoxyille, Tenn., USA) using healthy male Wistar rats. During all scan sessions, animals were kept under gas anesthesia (2.5% isoflurane in O2 at 1 L/min flow rate).
Dynamic scans of 90 min were acquired. After reconstruction of the images (filtered back projection), they were spatially normalized to an in-house created [^11C]raclopride template of the rat brain in Paxinos coordinates. Automated and symmetric volumes of interest (VOIs) were generated for different brain regions (striatum, cortex, cerebellum, hippocampus, hypothalamus, thalamus, substantia nigra, nucleus accumbens and lateral globus pallidus) from which time-activity curves (TAC) were constructed for each individual scan, using PMOD software (v 3.1, PMOD Technologies Ltd.). The radioactivity concentration in the different brain regions was expressed as SUV as a function of time p.i. of the radiotracer by normalization for body weight of the animal and injected dose.
Rats were injected with 30-60 MBq of high specific activity formulation of [^11C]B-4, [^11C]B-2, [^11C]B-7, or [^11C]B-10 via the tail vein under isoflurane anesthesia (2.5% in O2 at 1 L/min flow rate).
For pretreatment and displacement experiments, compound A, compound B or ritanserin were dissolved and administered in a vehicle containing 20% (2-hydroxypropyl)-β-cyclodextrine and two equivalents hydrochloric acid. The ritanserin solution was protected from light.
A self-blocking study was done by subcutaneous (s.c.) administration of the authentic reference material (for [^11C]B-4) at ˜30 min prior to the radiotracer injection. Displacement studies were performed by i.v. injection of compound B at dose 4, 1, 0.3 and 0.1 mg/kg, compound A at dose 1 mg/kg or ritanserin at dose 0.3 mg/kg. All chase compounds were injected ˜30 min after radiotracer injection. A wash-out period of at least four days was maintained between the different pretreatment and displacement studies.
[^11C]B-4 was evaluated in vivo in three rats which were scanned dynamically for 90 min using μPET. The first rat was used for a baseline scan. The second rat was pretreated with authentic reference material B-4 via s.c. administration (dose 10 mg/kg) at 30 min prior to tracer injection. The third rat was used in a chase experiment and was injected i.v. with authentic reference material B-4 (dose 3 mg/kg) 30 min after tracer injection.
Two rats were injected with high specific activity tracer ([^11C]B-4, [^11C]B-2, [^11C]B-7, or [^11C]B-10) and scanned dynamically for 90 min. The first rat was scanned baseline, the second rat was injected i.v. with compound B (dose 4 mg/kg) 30 min after tracer injection. Table 16 gives an overview of the maximum and minimum SUV values in the chase experiment for the four studied tracers.
A chase experiment was performed for [^11C]B-2 with different doses of compound B (4, 1, 0.3, 0.1 mg/kg). The chase compound was injected i.v. 30 min after tracer injection. Table 17 gives an overview of the average SUV values before and after injection of the chase for the total brain.

T4 sequence (O00222 34-908): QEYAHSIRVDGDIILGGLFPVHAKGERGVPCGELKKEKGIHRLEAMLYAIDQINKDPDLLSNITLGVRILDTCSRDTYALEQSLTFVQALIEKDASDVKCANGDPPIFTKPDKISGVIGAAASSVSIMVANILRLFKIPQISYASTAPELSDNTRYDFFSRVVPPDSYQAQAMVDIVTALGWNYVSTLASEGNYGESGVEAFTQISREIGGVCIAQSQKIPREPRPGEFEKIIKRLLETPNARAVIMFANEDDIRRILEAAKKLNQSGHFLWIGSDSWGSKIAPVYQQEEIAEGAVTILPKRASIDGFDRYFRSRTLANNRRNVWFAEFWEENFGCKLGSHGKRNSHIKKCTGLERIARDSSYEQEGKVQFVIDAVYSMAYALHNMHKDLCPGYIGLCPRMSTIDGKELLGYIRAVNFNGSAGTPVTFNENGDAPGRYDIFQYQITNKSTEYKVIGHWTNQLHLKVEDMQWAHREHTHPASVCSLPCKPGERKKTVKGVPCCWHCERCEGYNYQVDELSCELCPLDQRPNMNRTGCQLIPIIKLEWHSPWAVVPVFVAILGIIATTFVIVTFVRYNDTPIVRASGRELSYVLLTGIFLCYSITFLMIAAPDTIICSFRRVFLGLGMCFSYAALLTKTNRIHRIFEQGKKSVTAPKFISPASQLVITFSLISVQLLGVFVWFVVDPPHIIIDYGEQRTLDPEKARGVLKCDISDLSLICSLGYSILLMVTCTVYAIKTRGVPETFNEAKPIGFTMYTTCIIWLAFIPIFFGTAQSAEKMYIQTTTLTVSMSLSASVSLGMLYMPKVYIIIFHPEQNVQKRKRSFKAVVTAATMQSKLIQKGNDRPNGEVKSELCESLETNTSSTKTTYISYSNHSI
T2 sequence (Q14832 23-879): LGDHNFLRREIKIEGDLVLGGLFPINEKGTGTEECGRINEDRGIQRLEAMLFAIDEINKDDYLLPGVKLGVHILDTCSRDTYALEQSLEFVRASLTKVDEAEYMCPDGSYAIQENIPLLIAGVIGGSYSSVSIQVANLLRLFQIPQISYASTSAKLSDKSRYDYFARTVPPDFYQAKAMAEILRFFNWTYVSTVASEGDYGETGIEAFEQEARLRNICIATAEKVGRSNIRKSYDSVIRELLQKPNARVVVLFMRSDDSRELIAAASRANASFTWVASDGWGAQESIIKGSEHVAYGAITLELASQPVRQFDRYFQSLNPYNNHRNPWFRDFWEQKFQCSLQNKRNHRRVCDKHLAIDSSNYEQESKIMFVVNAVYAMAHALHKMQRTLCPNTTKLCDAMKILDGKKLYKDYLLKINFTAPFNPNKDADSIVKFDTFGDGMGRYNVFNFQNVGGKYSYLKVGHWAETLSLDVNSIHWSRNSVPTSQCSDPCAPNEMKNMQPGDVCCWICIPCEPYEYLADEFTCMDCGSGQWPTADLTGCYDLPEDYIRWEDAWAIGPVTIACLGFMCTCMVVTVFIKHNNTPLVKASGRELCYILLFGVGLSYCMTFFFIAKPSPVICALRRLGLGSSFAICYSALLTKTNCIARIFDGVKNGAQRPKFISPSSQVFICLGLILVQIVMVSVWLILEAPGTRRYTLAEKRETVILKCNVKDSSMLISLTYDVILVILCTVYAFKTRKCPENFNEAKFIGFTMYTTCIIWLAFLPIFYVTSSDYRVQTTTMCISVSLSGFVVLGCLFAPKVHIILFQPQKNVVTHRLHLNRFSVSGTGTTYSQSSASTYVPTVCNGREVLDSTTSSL
T1 sequence (Q14416 19-872): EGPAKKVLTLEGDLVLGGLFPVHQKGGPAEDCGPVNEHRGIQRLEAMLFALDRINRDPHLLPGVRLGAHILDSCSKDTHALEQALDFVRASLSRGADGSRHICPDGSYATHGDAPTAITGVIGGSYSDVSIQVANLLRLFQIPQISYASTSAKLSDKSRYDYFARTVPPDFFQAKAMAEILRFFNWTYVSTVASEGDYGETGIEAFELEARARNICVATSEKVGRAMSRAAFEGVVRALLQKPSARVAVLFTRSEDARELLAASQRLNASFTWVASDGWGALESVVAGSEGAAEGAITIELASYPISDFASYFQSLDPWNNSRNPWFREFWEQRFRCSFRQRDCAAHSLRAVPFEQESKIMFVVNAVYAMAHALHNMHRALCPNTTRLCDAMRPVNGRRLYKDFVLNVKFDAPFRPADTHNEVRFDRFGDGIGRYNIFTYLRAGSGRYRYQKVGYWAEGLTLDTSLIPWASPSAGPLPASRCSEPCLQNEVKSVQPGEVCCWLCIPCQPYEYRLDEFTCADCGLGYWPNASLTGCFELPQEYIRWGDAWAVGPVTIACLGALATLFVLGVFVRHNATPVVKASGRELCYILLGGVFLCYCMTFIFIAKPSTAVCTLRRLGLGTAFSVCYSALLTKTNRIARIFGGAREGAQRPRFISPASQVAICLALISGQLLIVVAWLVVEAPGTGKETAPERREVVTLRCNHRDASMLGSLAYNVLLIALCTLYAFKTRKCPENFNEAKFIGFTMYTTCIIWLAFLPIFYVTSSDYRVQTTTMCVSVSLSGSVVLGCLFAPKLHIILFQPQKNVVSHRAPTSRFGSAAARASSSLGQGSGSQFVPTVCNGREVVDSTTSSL
T3 sequence (Q14831 35-915): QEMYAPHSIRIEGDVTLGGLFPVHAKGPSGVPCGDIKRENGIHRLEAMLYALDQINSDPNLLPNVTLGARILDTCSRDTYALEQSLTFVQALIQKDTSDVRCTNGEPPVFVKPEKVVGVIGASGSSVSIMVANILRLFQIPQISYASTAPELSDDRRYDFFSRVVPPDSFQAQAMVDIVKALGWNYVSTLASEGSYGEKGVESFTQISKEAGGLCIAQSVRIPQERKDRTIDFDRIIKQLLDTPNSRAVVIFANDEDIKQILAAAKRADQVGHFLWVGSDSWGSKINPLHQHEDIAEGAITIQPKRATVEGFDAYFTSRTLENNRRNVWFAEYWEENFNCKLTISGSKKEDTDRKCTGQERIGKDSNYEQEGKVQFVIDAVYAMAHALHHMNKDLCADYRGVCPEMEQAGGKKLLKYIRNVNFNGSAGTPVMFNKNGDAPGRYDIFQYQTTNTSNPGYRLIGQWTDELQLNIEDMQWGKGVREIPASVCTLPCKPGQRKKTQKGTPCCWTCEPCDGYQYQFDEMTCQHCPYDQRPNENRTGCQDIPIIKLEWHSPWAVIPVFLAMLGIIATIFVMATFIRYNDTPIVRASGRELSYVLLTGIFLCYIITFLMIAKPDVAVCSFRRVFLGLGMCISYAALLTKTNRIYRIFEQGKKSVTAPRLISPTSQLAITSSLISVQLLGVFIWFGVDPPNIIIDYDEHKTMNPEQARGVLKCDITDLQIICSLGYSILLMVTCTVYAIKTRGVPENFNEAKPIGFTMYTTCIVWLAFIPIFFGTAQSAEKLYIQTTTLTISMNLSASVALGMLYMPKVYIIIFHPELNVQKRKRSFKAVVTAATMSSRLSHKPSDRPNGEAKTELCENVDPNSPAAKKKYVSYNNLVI
T5 sequence (P31421 19-872): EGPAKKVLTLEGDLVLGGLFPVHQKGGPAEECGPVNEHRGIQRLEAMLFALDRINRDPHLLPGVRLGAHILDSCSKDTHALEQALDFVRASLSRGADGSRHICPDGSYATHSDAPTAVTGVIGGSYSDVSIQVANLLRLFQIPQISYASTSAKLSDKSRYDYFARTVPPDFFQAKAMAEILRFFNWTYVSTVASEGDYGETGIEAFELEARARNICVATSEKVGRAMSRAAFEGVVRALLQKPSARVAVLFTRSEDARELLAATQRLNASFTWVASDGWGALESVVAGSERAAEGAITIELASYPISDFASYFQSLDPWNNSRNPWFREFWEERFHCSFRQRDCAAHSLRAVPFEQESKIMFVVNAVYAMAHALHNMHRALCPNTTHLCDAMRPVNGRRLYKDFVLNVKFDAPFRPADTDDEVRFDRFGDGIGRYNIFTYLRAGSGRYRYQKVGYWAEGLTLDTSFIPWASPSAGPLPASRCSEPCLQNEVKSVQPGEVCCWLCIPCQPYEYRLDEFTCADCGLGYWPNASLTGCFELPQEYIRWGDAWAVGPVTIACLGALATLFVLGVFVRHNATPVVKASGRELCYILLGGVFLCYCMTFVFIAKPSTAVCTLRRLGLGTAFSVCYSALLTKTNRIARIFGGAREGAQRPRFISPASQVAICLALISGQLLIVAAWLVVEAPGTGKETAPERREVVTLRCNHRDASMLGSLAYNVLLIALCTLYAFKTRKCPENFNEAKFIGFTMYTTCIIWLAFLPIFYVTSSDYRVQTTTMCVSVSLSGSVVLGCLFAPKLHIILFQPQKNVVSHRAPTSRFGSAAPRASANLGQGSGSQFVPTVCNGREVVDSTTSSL

SMILES	GTPγS-hmGluR2 PAM pEC50 (human mGluR2 receptor)	Selectivity over mGluR1, mGluR3-mGluR8 [1]	Selectivity over mGluR3 (hmGluR3)	Selectivity over mGluR7 (hmGluR7)	Selectivity over mGluR8 (hmGluR8)	EC50 (human mGluR2 receptor) [nM]	melting point [°C]	effect of the chase compound on the binding of [^11C]B-2 (mGluR2)
COc1cccc(F)c1C1CCN(c2ccn3c(CC4CC4)nnc3c2Cl)CC1 [compound 6]	8.22	> 1,000 fold	> 300 fold	mGluR7 and mGluR8 for which selectivity >500 fold	mGluR7 and mGluR8 for which selectivity >500 fold			
COc1ccccc1C1CCN(c2ccn3c(CC4CC4)nnc3c2Cl)CC1 [compound 11]	7.7	>100, except for mGluR3 for which selectivity fold	~20 fold					
COc1c(F)ccc(F)c1C1CCN(c2ccn3c(CC4CC4)nnc3c2Cl)CC1 [compound 2]		>1,000 fold				7.41	163.2	
COc1c(F)ccc(F)c1C1CCN(c2ccn3c(CC4CC4)nnc3c2C(F)(F)F)CC1 [compound 3]	8.39	>1,000 fold					180.7	
COc1c(F)cccc1C1CCN(c2ccn3c(CC4CC4)nnc3c2C(F)(F)F)CC1 [compound 12]		≥ 1,000 fold	≥ 200 fold			11.2	195.7	
COc1ccc(F)cc1C1CCN(c2ccn3c(CC(F)(F)F)nnc3c2Cl)CC1 [compound 1]	7.98	>1,000 fold					259	
COc1cc(F)cc(F)c1C1CCN(c2ccn3c(CC4CC4)nnc3c2Cl)CC1 [compound 7]	8.16	>1,000 fold, except for mGluR3 and mGluR8	≧500 fold		≧500 fold		162.2	
COc1cccc(F)c1C1CCN(c2ccn3c(CC(F)(F)F)nnc3c2Cl)CC1 [compound 5]		≧1,000 fold				3.89		
COc1ccc(F)c(F)c1C1CCN(c2ccn3c(CC4CC4)nnc3c2Cl)CC1 [compound 10]	8.03	>1,000 fold, except for mGluR3 and mGluR8 for	which selectivity ≧500 fold		which selectivity ≧500 fold		208.5	
COc1c(F)cccc1C1CCN(c2ccn3c(CC4CC4)nnc3c2Cl)CC1 [compound 9]	7.43	>500 fold					168.3	
COc1ccc(F)cc1C1CCN(c2ccn3c(CC4CC4)nnc3c2Cl)CC1 [compound 4]		> 500 fold	≥ 40 fold			9.33	> 300	
Cc1nc2sccn2c(=O)c1CCN1CCC(=C(c2ccc(F)cc2)c2ccc(F)cc2)CC1 [Ritanserin, ritanserin, reference compound]								no significant effect
COc1c(C2CCN(c3ccn4c(CC5CC5)nnc4c3Cl)CC2)ccc(F)c1F [compound 8]		> 1,000 fold	≥ 400 fold			26.3	173.5	
